Test results reported in patent publication US20220340547A1, “INDOLE DERIVATIVE-CONTAINING INHIBITOR, PREPARATION METHOD THEREFOR AND APPLICATION THEREOF” (Shanghi Hansoh Biosoh Biomedical Co., Ltd., priority 2019, published 2022).

Columns and labels:
A431 cell line = assay: Proliferation of A431 cell line (CellTiter-Glo); type: cell-based; conditions: Homo sapiens, A-431, 72 h
Experimental: Test Example 3. Determination of the Inhibitory Effect of the Compound of the Present Invention on the Proliferation of Ba/F3 EGFR Mutant Cell Line and A431 Cell Line
(§1) Experimental objective: The objective of this test example is to determine the inhibitory effect of the compound on the proliferation of Ba/F3 EGFR mutant cell line and A431 cell line
(§2) Experimental instruments: Microplate reader (BioTek Synergy H1), pipette (Eppendorf & Rainin).
(§3) A431 cells were cultured, and harvested after reaching a suitable density. The cells were adjusted to an appropriate cell concentration with the complete medium. The cell suspension were spread on a 96-well plate (90 μL per well), and the plate was placed in a 37° C., 5% CO2 incubator overnight to let the cells adhere to the wall. Solutions of the compound at different concentrations were formulated with DMSO and culture medium. Solvent control was set. The solution of the compound was added to the 96-well plate (10 L per well), and the plate was incubated in the 37° C., 5% CO2 incubator for 72 h. CellTiter-Glo solution was added and mixed well by shaking, and the plate was incubated in the dark for 10 minutes. The values were measured by BioTek Synergy H1 microplate reader.
(§4) Experimental Data Processing Method:
(§5) The inhibition rate was calculated using the […] signal value. The concentration and inhibition rate were fitted to a nonlinear regression curve by Graphpad Prism software to obtain the IC50 value.

[1] = molecular target: Ba/F3 EGFR-D770-N771ins_SVD (Homo sapiens, UniProt P00533, DUP768-770, cells depend on it); assay: Proliferation of Ba/F3 EGFR mutant cell line (CellTiter-Glo); type: cell-based, mouse; conditions: 72 h to 144 h, read-out: Ba/F3 EGFR-D770-N771ins_SVD IC50
Experimental: Determination of the Inhibitory Effect of the Compound of the Present Invention on the Proliferation of Ba/F3 EGFR Mutant Cell Line and A431 Cell Line
as §1, §2
as §3, with “Ba/F3 EGFR mutant” for “A431”, “The solution of the compound was added to the 96-well plate (10 L per well), and the plate was incubated in the 37° C., 5% CO2 incubator for 72 h.” left out
as §4, §5

EGFR D770_N771insNPG = EGFR D770_N771insNPG (Homo sapiens, UniProt P00533, INS770NPG); assay: TR-FRET inhibition of kinase activity of EGFR exon 20 insertion mutation; type: biochemical
Source text: Determination of the Inhibitory Effect of the Compound of the Present Invention on the Kinase Activity of EGFR Exon 20 Insertion Mutation
Experimental objective: The objective of this test example is to determine the inhibitory effect of the compound on the kinase activity of EGFR exon 20 insertion mutation.
Experimental process: The experiment applied the TR-FRET (time-resolved fluorescence resonance energy transfer) method to study the inhibitory effect of the compound on the kinase activity of EGFR exon 20 insertion mutation. The experiment was carried out in a 384-well plate. Experimental buffer (50 mM HEPES, 1 mM EGTA, 10 mM MgCl2, 2 mM DTT, 0.01% Tween-20) was formulated. The compound was diluted in gradient to different concentrations with the experimental buffer. 2.5 μL of the solution was added to each well of the 384-well plate. 2.5 μL of diluted EGFR kinase solution (0.001-0.5 nM) was added, and the plate was incubated at room temperature for 10 minutes. 5 μL of ULight-poly GT/ATP mixed solution was added, and the plate was incubated at room temperature for 30 to 60 minutes. 5 μL of EDTA stop solution and 5 μL of Eu-labeled antibody detection solution were added, and the plate was incubated at room temperature for 1 hour.
as §4
The concentration and inhibition rate were fitted to a nonlinear regression curve by Graphpad Prism software to obtain the IC50 value.

Sequence of Ba/F3 EGFR-D770-N771ins_SVD (P00533 with tags, fused parts or gaps DUP768-770): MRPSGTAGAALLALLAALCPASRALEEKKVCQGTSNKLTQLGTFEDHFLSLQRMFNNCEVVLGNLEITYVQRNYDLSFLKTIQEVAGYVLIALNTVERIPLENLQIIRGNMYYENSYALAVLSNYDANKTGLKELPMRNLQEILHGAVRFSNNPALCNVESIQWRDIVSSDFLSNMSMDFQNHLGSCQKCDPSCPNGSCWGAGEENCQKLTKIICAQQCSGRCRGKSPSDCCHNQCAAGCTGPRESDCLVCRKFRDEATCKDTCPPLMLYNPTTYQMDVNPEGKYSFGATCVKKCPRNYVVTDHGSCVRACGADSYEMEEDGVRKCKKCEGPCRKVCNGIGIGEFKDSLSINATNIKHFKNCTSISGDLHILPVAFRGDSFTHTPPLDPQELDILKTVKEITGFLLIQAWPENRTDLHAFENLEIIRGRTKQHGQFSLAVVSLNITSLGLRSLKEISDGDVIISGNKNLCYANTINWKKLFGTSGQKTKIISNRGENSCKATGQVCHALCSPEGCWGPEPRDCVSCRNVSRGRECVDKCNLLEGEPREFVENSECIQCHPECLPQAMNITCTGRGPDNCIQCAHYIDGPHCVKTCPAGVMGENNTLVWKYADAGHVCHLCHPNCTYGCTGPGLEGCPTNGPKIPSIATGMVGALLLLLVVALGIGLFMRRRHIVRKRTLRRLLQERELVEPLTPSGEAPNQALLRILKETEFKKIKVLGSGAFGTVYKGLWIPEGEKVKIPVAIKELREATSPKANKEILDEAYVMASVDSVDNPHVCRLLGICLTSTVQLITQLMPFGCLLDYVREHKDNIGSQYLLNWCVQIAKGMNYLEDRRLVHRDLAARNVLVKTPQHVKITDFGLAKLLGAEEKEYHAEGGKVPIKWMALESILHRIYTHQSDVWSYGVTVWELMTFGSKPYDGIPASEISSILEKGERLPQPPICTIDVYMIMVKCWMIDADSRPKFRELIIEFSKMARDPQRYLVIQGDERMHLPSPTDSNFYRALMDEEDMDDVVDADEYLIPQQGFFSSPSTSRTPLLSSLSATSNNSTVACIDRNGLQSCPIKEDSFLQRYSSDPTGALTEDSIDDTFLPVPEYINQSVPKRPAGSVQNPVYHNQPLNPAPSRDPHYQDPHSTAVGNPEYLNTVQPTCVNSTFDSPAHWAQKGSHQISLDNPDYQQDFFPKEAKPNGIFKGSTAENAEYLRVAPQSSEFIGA
Sequence of EGFR D770_N771insNPG (P00533 with tags, fused parts or gaps INS770NPG limits assumed): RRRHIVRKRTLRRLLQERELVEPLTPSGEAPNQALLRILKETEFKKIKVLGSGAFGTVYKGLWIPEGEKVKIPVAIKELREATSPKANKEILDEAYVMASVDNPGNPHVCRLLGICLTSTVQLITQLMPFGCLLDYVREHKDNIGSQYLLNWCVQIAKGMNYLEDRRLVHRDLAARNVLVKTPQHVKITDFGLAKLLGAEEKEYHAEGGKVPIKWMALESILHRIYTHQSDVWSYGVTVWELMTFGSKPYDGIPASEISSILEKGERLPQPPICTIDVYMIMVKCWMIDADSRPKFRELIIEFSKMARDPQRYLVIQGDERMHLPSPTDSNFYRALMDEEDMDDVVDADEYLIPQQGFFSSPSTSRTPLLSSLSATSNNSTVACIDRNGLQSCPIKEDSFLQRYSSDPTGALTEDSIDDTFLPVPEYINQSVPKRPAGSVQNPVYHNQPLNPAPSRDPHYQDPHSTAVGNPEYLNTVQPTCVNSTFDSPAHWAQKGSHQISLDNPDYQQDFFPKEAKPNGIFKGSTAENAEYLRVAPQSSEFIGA

Compound	IC50 (A431 cell line) [nM]	GI50 [1] [nM]	IC50 (EGFR D770_N771insNPG) [nM]
CC#CC(=O)Nc1cc(Nc2ncc(C(=O)OC(C)C)c(-c3cn(C)c4ccccc34)n2)c(OC)cc1N(C)CC1CCCN1C (stereo not shown) [Example 1, Isopropyl 2-((5-(but-2-ynamido)-2-methoxy-4-(methyl((1-methylpyrrolidin-2-yl)methyl)amino)phenyl)amino)-4-(1-methyl-1H-indol-3-yl)pyrimidine-5-carboxylate]	537	76	–
C=CC(=O)Nc1cc(Nc2ncc(C(=O)OC(C)C)c(-c3cn(C)c4ccccc34)n2)c(OC)cc1N1C[C@H]2CN(C)C[C@H]2C1 [Example 24, Isopropyl 2-((5-acrylamido-2-methoxy-4-(5-methylhexahydropyrrolo[3,4-c]pyrrol-2(1H)-yl)phenyl)amino)-4-(1-methyl-1H-indol-3-yl)pyrimidine-5-carboxylate]	124	15	–
C=CC(=O)Nc1cc(Nc2ncc(C(=O)OC(C)C)c(-c3cn(C)c4ccccc34)n2)c(OC)cc1N1CC2(CN(C)C2)C1 [Example 26, Isopropyl 2-((5-acrylamido-2-methoxy-4-(6-methyl-2,6-diazaspiro[3.3]heptan-2-yl)phenyl)amino)-4-(1-methyl-1H-indol-3-yl)pyrimidine-5-carboxylate]	–	–	0.36
C=CC(=O)Nc1cc(Nc2ncc(-c3cnn(C)c3)c(-c3cn(C4CC4)c4ccccc34)n2)c(OC)cc1N1C[C@H]2CN(C)C[C@H]2C1 [Example 43, N-(5-((4-(1-Cyclopropyl-1H-indol-3-yl)-5-(1-methyl-1H-pyrazol-4-yl)pyrimidin-2-yl)amino)-4-methoxy-2-((3aR,6aS)-5-methylhexahydropyrrolo[3,4-c]pyrrol-2(1H)-yl)phenyl)acrylamide]	–	21	0.29
C=CC(=O)Nc1cc(Nc2ncc(C(=O)OC(C)C)c(-c3cn(C)c4ccccc34)n2)c(OC)cc1N1C[C@H]2CN(C)C[C@H]2C1 [Example 63, Isopropyl 2-((5-acrylamido-2-methoxy-4-((3aR,6aS)-5-methylhexahydropyrrolo[3,4-c]pyrrol-2(1H)-yl)phenyl)amino)-4-(1-methyl-1H-indol-3-yl)pyrimidine-5-carboxylate]	–	–	0.62
C=CC(=O)Nc1cc(Nc2ncc(-c3cnn(C)c3)c(-c3cn(C4CC4)c4ccccc34)n2)c(OC)cc1N1C[C@@H]2CCN(C)[C@@H]2C1 [Example 65, N-(5-((4-(1-Cyclopropyl-1H-indol-3-yl)-5-(1-methyl-1H-pyrazol-4-yl)pyrimidin-2-yl)amino)-4-methoxy-2-((3aS,6aS)-1-methylhexahydropyrrolo[3,4-b]pyrrol-5(1H)-yl)phenyl)acrylamide]	–	15.1	0.29
C=CC(=O)Nc1cc(Nc2ncc(-c3cnn(C)c3)c(-c3cn(C4CC4)c4ccccc34)n2)c(OC)cc1N1C[C@H]2CCN(C)[C@H]2C1 [Example 68]	–	15.4	0.17
C=CC(=O)Nc1cc(Nc2ncc(-c3ccc(F)cc3F)c(-c3cn(C4CC4)c4ccccc34)n2)c(OC)cc1N1C[C@H]2CN(C)C[C@H]2C1 [Example 69, N-(5-((4-(1-Cyclopropyl-1H-indol-3-yl)-5-(2,4-difluorophenyl)pyrimidin-2-yl)amino)-4-methoxy-2-((3aR,6aS)-5-methylhexahydropyrrolo[3,4-c]pyrrol-2(1H)-yl)phenyl)acrylamide]	–	40	–
C=CC(=O)Nc1cc(Nc2ncc(-c3ccnn3C)c(-c3cn(C4CC4)c4ccccc34)n2)c(OC)cc1N1C[C@H]2CN(C)C[C@H]2C1 [Example 70, N-(5-((4-(1-Cyclopropyl-1H-indol-3-yl)-5-(1-methyl-1H-pyrazol-5-yl)pyrimidin-2-yl)amino)-4-methoxy-2-((3aR,6aS)-5-methylhexahydropyrrolo[3,4-c]pyrrol-2(1H)-yl)phenyl)acrylamide]	–	47.4	–
C=CC(=O)Nc1cc(Nc2ncc(C#N)c(-c3cn(C4CC4)c4ccccc34)n2)c(OC)cc1N1CC(N(C)C)C1 [Example 74, N-(5-((5-Cyano-4-(1-cyclopropyl-1H-indol-3-yl)pyrimidin-2-yl)amino)-2-(3-(dimethylamino)azetidin-1-yl)-4-methoxyphenyl)acrylamide]	–	–	0.64
C=CC(=O)Nc1cc(Nc2ncc(C#N)c(-c3cn(C4CC4)c4ccccc34)n2)c(OC)cc1N1CC[C@H](N(C)C)C1 [Example 77, (S)—N-(5-((5-cyano-4-(1-cyclopropyl-1H-indol-3-yl)pyrimidin-2-yl)amino)-2-(3-(dimethylamino)pyrrolidin-1-yl)-4-methoxyphenyl)acrylamide]	–	–	0.91
C=CC(=O)Nc1cc(Nc2ncc(-c3cnn(C)c3)c(-c3cn(C4CC4)c4ccccc34)n2)c(OC)cc1N(C)CCN(C)C [Example 85, N-(5-((4-(1-Cyclopropyl-1H-indol-3-yl)-5-(1-methyl-1H-pyrazol-4-yl)pyrimidin-2-yl)amino)-2-((2-(dimethylamino)ethyl)(methyl)amino)-4-methoxyphenyl)acrylamide]	–	17.4	0.27
C=CC(=O)Nc1cc(Nc2ncc(C#N)c(-c3cn(C4CC4)c4ccccc34)n2)c(OC)cc1N1C[C@@H]2CCN(C)[C@@H]2C1 [Example 110, N-(5-((5-Cyano-4-(1-cyclopropyl-1H-indol-3-yl)pyrimidin-2-yl)amino)-4-methoxy-2-((3aS,6aS)-1-methylhexahydropyrrolo[3,4-b]pyrrol-5(1H)-yl)phenyl)acrylamide]	–	–	0.53
C=CC(=O)Nc1cc(Nc2ncc(C#N)c(-c3cn(C4CC4)c4cc(OC)ccc34)n2)c(OC)cc1N(C)CCN(C)C [Example 112, N-(5-((5-Cyano-4-(1-cyclopropyl-6-methoxy-1H-indol-3-yl)pyrimidin-2-yl)amino)-2-((2-(dimethylamino)ethyl)(methyl)amino)-4-methoxyphenyl)acrylamide]	–	26.7	0.17
C=CC(=O)Nc1cc(Nc2ncc(C#N)c(-c3cn(C4CC4)c4ccccc34)n2)c(OC)cc1OCCN(C)C [Example 113, N-(5-((5-Cyano-4-(1-cyclopropyl-1H-indol-3-yl)pyrimidin-2-yl)amino)-2-(2-(dimethylamino)ethoxy)-4-methoxyphenyl)acrylamide]	–	–	0.7
C=CC(=O)Nc1cc(Nc2ncc(C#N)c(-c3cn(C4CC4)c4cc(F)ccc34)n2)c(OC)cc1N(C)CCN(C)C [Example 114, N-(5-((5-Cyano-4-(1-cyclopropyl-6-fluoro-1H-indol-3-yl)pyrimidin-2-yl)amino)-2-((2-(dimethylamino)ethyl)(methyl)amino)-4-methoxyphenyl)acrylamide]	–	42.5	0.61
C=CC(=O)Nc1cc(Nc2ncc(C#N)c(-c3cn(C4CC4)c4c(OC)cccc34)n2)c(OC)cc1N(C)CCN(C)C [Example 119, N-(5-((5-Cyano-4-(1-cyclopropyl-7-methoxy-1H-indol-3-yl)pyrimidin-2-yl)amino)-2-((2-(dimethylamino)ethyl)(methyl)amino)-4-methoxyphenyl)acrylamide]	–	45.4	0.49
C=CC(=O)Nc1cc(Nc2ncc(C#N)c(-c3cn(C4CC4)c4ncccc34)n2)c(OC)cc1N(C)CCN(C)C [Example 139, N-(5-((5-Cyano-4-(1-cyclopropyl-1H-pyrrolo[2,3-b]pyridin-3-yl)pyrimidin-2-yl)amino)-2-((2-(dimethylamino)ethyl)(methyl)amino)-4-methoxyphenyl)acrylamide]	–	–	0.68
